# Test results from US20250073202A1, “METHODS TO TREAT RENAL DISORDERS USING CALCIUM CHANNEL INHIBITORS” (The Trustees of Indiana University, priority 2018, published 2025).
# “Also recorded” adds a separate entry of the source.
# System: renal ischemia reperfusion injury
# Assay: Bilateral renal ischemia/reperfusion (I/R) injury in rats, 24 hours after reperfusion (Study II)
# Format: in vivo, rat
# Method: All studies used male Sprague-Dawley rats (250-300 g) that were purchased from Envigo (Indianapolis, IN). Rats were anesthetized with a cocktail of ketamine (100 mg·kg^−1, KetoVed, Vedco Inc, St. Joseph, MO) and xylazine (50 mg·kg^−1, AnaSed, Lloyd Inc, Shenandoah IA). Rats were placed on a heated surgical table to maintain body temperature. A midline incision and either unilateral (left) or bilateral renal ischemia (as indicated in Results) was induced by applying micro-aneurism clamps on the renal pedicles for a period of 40 min. Re-establishment of perfusion was verified by visual examination following removal of the clamps. Rats were provided post-operative analgesia using buprenorphine-SR (1 mg·kg^−1).
# Rats were allowed to recover for various periods of time as described in the Results. In Study I, lymphocytes were studied in vitro after recovery for either 2 or 7 days following I/R or sham surgery for evaluation of function in vitro or for FACS analysis. In Study II, the effect of SOCE on kidney injury was studied with the inhibitor YM58483/BPT2 (N-[4-[3,5-Bis(trifluoromethyl)-1H-pyrazol-1-yl]phenyl]-4-methyl-1,2,3-thiadiazole-5-carboxamide; Tocris/Bio-Techne Minneapolis, MN). Rats were pretreated p.o. 2-3 hours prior to surgery with YM58483.BPT2 (1 mg·kg^−1) in sugar-free chocolate pudding following dilution in 100% EtOH, at, a dose previously shown to affect T cell activation in rats. In some experiments, rats were also treated with the IL17Rc (150 ng/day i.p; R&D Systems). In addition, one experiment utilized a model of rhabdomyolysis, induced by injection of 50% glycerol (10 ml/kg) into the hindlimb muscle of rats following 16 hours of water restriction.
# To measure creatinine, tail blood was collected in heparin containing tubes and centrifuged to collect plasma. Plasma creatinine was measured using a Pointe Scientific Analyzer and Creatinine Assay reagents using methods outlined by the manufacturer (Pointe Scientific, Canton MI). Urine was collected for 24 hours by placing rats in metabolic cages and urine volume was determined gravimetrically. Urine creatinine was measured using a colorimetric assay adopted for microplate readers. Creatinine clearance was measured using UCr*V/PCr. […]
# Freshly harvested kidneys were minced and digested in liberase (2 μg/ml. Roche, Indianapolis IN) for 15 min at 37° C. using Gentle MACs (Miltenyli, San Diego, CA). The digested tissue was filtered through a 100-μm mesh and washed with RPMI containing 10% fetal bovine serum (Invitrogen). Mononuclear cells were isolated using Percol (Sigma) density gradient centrifugation.
# To evaluate protein expression of IL17 or Orai1, Orai2 or Orai3, cells were restimulated with PMA and ionomycin for 6 hours in the presence of monensin (Golgistop, 1 μg·ml, BD Biosciences) permeabilized with saponin ([…]) and stained with relevant antibody. Cells were scanned using flow cytometry (FACSCalibur, BD Biosciences, San Jose, CA) and scans were analyzed using Flowjo software (Tree Star, Ashland, OR).
# The effect of SOCE on early ischemic kidney injury was studied with the inhibitor YM58483/BPT2 (N-[4-[3,5-Bis(trifluoromethyl)-1 H-pyrazol-1-yl]phenyl]-4-methyl-1,2,3-thiadiazole-5-carboxamide; Tocris/Bio-Techne Minneapolis, MN). Rats were pretreated 2-3 hours prior to surgery, p.o. in sugar-free chocolate pudding following dilution in 100% EtOH, at 1 mg·kg^−1, a dose previously shown affect T cell activation in rats. To evaluate if SOCE influences Th17 cells in AKI, rats were fed YM58483/BPT2 approximately 2 hours prior to […] and reperfusion. […] YM58483/2BPT2 also attenuated the infiltration of total CD4+ and CD8+ T-cells, B-cells, and dendritic cells following I/R (FIGS. 3C, 3D, 3E, and 3F).
# [1] = 24 hours following I/R, listed as YM58483/2BPT2
# [2] = 24 hours following I/R, listed as YM58483/BPT
# [3] = 24 hours following ischemia reperfusion, mean ± S.E.
smiles,measurement,setting,value
"Cc1nnsc1C(=O)Nc1ccc(-n2nc(C(F)(F)F)cc2C(F)(F)F)cc1 [YM58483/BPT2, N-[4-[3,5-Bis(trifluoromethyl)-1H-pyrazol-1-yl]phenyl]-4-methyl-1,2,3-thiadiazole-5-carboxamide]",mRNA expression of kidney injury marker-1 (Kim-1),"24 hours after reperfusion, 1 mg/kg p.o. pretreatment",significantly attenuated
same,level of renal injury as plasma creatinine (vs vehicle),"24 hours after reperfusion, YM58483 1 mg/kg p.o. 2-3 hours prior to surgery",significantly attenuated; also recorded: significantly reduced
same,CD8+ cells in kidney (vs vehicle),24 hours following I/R,did not significantly effect
same,Th1 cells post-ischemia,24 hours following I/R,did not significantly influence
same,Th2 cells post-ischemia,24 hours following I/R,did not significantly influence
same,infiltration of B-cells in kidney,24 hours following I/R,attenuated
same,infiltration of dendritic cells in kidney,24 hours following I/R,attenuated
same,kidney CD4+/IL17+ cells (vs vehicle),24 hours following I/R,reduction was observed
same,reduction of total IL17 expressing cells relative to vehicle,"24 hours following I/R, 1 mg/kg p.o. pretreatment",~78%
same,infiltration of total CD4+ T-cells in kidney (vs vehicle),"24 hours following I/R, listed as YM58483/2-BPT",attenuated
same,CD8+ cells in kidney (vs vehicle),[1],attenuated
same,infiltration of total CD4+ T-cells in kidney (vs vehicle),[1],attenuated
same,infiltration of total CD4+ T-cells in kidney (vs vehicle),[2],significantly reduced
same,kidney CD4+/IL17+ cells (vs vehicle),[2],significantly reduced
same,CD4+ renal lymphocyte content,[3],26156 ± 4365 cells/gram
same,CD4+/IL-17+ cells,[3],2020 ± 731 cells/gram
same,CD8+ cells renal lymphocyte content,[3],8410 ± 1386 cells/gram
same,CD8+IL-17+ cells,[3],127 ± 23 cells/gram
same,Serum Creatinine,[3],3.7 ± 0.6 mg/dL
same,Total IL-17+ cells,[3],9334 ± 4293 cells/gram
